The values that follow come from paper PMC4840416, “Constructing and Validating High-Performance MIEC-SVM Models in Virtual Screening for Kinases: A Better Way for Actives Discovery” (Scientific Reports, 2016).

Structures are written as SMILES.

One may read the IC50 as the concentration at which inhibition is half-maximal.

For one assay, the target named is T1, recombinant human ALK protein (Homo sapiens, UniProt Q9UM73).
T1 construct: purchased Life Technologies Inc. PV3867
T1 sequence (Q9UM73 1058-1620 limits assumed): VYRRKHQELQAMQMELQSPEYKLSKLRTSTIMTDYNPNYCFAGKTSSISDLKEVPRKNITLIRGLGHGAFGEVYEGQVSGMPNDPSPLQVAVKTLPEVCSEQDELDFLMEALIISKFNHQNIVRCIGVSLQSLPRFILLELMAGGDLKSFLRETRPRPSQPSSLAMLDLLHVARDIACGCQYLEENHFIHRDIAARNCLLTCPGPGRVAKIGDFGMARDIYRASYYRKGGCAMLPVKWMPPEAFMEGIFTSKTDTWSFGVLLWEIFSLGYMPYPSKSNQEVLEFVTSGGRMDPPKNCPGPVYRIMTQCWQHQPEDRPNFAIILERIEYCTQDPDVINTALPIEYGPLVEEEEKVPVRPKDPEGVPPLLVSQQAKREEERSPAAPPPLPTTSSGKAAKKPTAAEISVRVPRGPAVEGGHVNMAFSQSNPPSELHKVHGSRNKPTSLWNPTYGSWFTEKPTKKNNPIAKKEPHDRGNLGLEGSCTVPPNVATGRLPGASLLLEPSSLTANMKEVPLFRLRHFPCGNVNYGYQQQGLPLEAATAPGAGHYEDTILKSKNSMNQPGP
Nature of the assay: LanthaScreen TR-FRET in vitro inhibitory activity assay of ALK. Format: biochemical. As to conditions: TR-FRET, 5 μM ATP, 1 hour at room temperature. As to the method:
All reagents and anhydrous solvents were obtained from commercial sources and used as received. The positive control inhibitors of ALK, crizotinib and ceritinib, were purchased from Bangshunda Technology and Selleck Chemicals, respectively. The compounds were dissolved in 100% dimethyl sulfoxide (DMSO) as a 10 mM stock solution. The final DMSO concentration in each reaction was less than 1%. Purified recombinant human ALK protein (Catalog number: PV3867) as well as reagents for TR-FRET assay, including Lantha Screen™ Tb-PY20 (Catalog number: PV3552), Fluorescein-Poly GT (Catalog number: PV3610), ATP (Catalog number: PV3227), Kinase Quench Buffer (Catalog number: P2832), Kinase Buffer (Catalog number: PV3189), and Antibody Dilution Buffer (Catalog number: PV3574), were all obtained from Life Technologies Inc.
Lantha Screen™ kinase assay based on TR-FRET technology was used to measure the inhibitory activity of the screened compounds. All the assays were carried out in 384-well plate format. The 4 × test compounds were firstly prepared before the enzyme reaction starts. The 4 × recombinant human ALK protein and 2 × Substrate/ATP mixture were separately prepared in 50 mM HEPES (pH = 7.5), 0.01% BRIJ-35, 10 mM MgCl2, 4 mM MnCl2, 1 mM EGTA, and 2 mM DTT. The final 10 μL kinase reaction consists of 5 μL 1 × Substrate/ATP mixture (0.2 μM substrate and 5 μM ATP), 2.5 μL ALK (5 ng/ml ALK protein), and 2.5 μL 1 × test compounds with desired concentration. The assay plate was shook on a plate shaker for 30 seconds to mix the reactions thoroughly. After 1 hour kinase reaction incubation at room temperature (20 ~ 25 °C), 10 μL of pre-prepared 20 mM EDTA and 4 nM Tb-labeled antibody solution was then added to terminate the kinase reactions and to initiate antibody binding, and the assay plate was incubated for another 1 hour at room temperature. Then, the assay plate was placed into a fluorescence plate reader (BioTek Synergy™ 4) to measure both fluoresce in and terbium emission signals (excitation: 340 nm; emission: 520 and 495 nm, respectively) with 100 μs delay time and 200 μs integration time. To determine the IC50 values, the resulted inhibitory activity calculated from TR-FRET emission ratio (i.e. fluoresce in emission intensity/terbium emission intensity) was plotted against the concentration of inhibitor, and the data was fitted to a dose-response curve with a variable slop.
For the compound `O=C(c1cc(C(=O)N2CCN(c3ccccc3)CC2)cc(C(=O)N2CCN(c3ccccc3)CC2)c1)N1CCN(c2ccccc2)CC1` [Compound A1], the IC50 came out at 572 nM. For `O=C(CN1C(=O)C(=NNC(=O)c2ccc(NC(=O)c3ccccc3)cc2)c2ccccc21)Nc1ccccc1` [Compound A2], the 50% inhibitory concentration (IC50) stood at 832 nM. On the same count and under the same terms, as for `Cc1ccc(C)c(N2CCN(C3CC(=O)N(c4ccc(N5C(=O)CC(N6CCN(c7cc(C)ccc7C)CC6)C5=O)cc4)C3=O)CC2)c1` (stereo not drawn) [Compound A3], the figure is 1540 nM. With `Cc1ccc(N2C(=O)C(=Cc3ccc(C)s3)C(=O)N(c3ccc(C)cc3C)C2=S)c(C)c1` [Compound M3], the IC50 turned out to be 515 nM. `COc1cc(/C=C2/C(=N)N3N=C(c4ccccc4Cl)SC3=NC2=O)ccc1O` [Compound M4]: the half-maximal inhibitory concentration (IC50) amounted to 863 nM.

Staying with this assay, now noted: compound at 2ug/ml.
With `O=C(Nc1ccccc1)c1c(-c2ccccc2)c(C(=O)c2ccc([N+](=O)[O-])cc2)n2ccccc12` [AI-204/31728031], the “Averaged Enzymatic Inhibition @ 2ug/ml (%)” value turned out to be 3.565%. For the compound `Cc1nc(Nc2nc(CSc3nnnn3-c3ccccc3)cc(=O)[nH]2)nc2ccccc12` [AJ-292/42284747], the “Averaged Enzymatic Inhibition @ 2ug/ml (%)” value was determined as 1.31%. For the compound `Cc1ccc(C(=O)CC2(O)C(=O)N(CCc3ccccc3)c3ccccc32)cc1` (stereo not drawn) [AK-778/40897568], the “Averaged Enzymatic Inhibition @ 2ug/ml (%)” value was found to be 18.54%. Consider `O=C(CC1(O)C(=O)N(CCc2ccccc2)c2ccccc21)c1ccc2c(c1)OCCO2` (stereo not drawn) [AK-778/41314821], for which the “Averaged Enzymatic Inhibition @ 2ug/ml (%)” value is given as -1.935%. Consider `C(=C(\Cn1nc(-c2ccccc2)c(-c2ccccc2)c1-c1ccccc1)c1ccccc1)/c1ccccc1` [AK-830/13217169], for which the “Averaged Enzymatic Inhibition @ 2ug/ml (%)” value is on record as 2.08%. Still for that read-out and setting: to `Cc1ccc(C(=O)COC(=O)c2ccc3nc4c5ccccc5c5ccccc5c4nc3c2)cc1C` [AK-918/13399094] belongs 8.005%; to `O=C(COC(=O)c1c(-c2ccccc2)c(-c2ccccc2)nc2ccccc12)c1ccccc1` [AK-918/15391011], -13.24%. For `C(=N\Nc1nnc(-c2ccccc2)c(-c2ccccc2)n1)/c1c2ccccc2cc2ccccc12` [AK-968/11200121], the “Averaged Enzymatic Inhibition @ 2ug/ml (%)” value is -0.805%.

Turning to `Cc1cccc(N=c2sc(C3=c4cc(C)ccc4=NC3=O)c(O)n2-c2cccc(C)c2)c1` [AK-968/11780042], the “Averaged Enzymatic Inhibition @ 2ug/ml (%)” value is -8.175%. The same measure, in the same setting: as for `Cc1ccc(-c2cc(C(=O)N3CCN(C/C=C/c4ccccc4)CC3)c3ccccc3n2)cc1C` [AK-968/11842315], the figure is 10.91%. On to `COc1ccccc1C(=O)Nc1ccc2oc(-c3cccc4c(Br)cccc34)nc2c1` [AK-968/12097078], for which the “Averaged Enzymatic Inhibition @ 2ug/ml (%)” value is recorded as -2.025%. Turning to `CCC1CCc2c(sc(NC(=O)c3c(-c4c(Cl)cccc4Cl)noc3C)c2C(N)=O)C1` (stereo not drawn) [AK-968/12265292], the “Averaged Enzymatic Inhibition @ 2ug/ml (%)” value is -4.47%. On the same count and under the same terms, as for `Cc1onc(-c2ccccc2)c1C(=O)Nc1cccc2c1C(=O)c1ccccc1C2=O` [AK-968/13025057], the figure is 30.35%; as for `CCCOc1ccc(-c2cc(C(=O)N3CCC(Cc4ccccc4)CC3)c3ccccc3n2)cc1` [AK-968/15360205], -17.96%.

As to `O=C1OC(c2ccccc2Cl)=N/C1=C\c1ccc(OCc2ccccc2)cc1OCc1ccccc1` [AK-968/37055166], the “Averaged Enzymatic Inhibition @ 2ug/ml (%)” value was -8.735%. The same measure, in the same setting: as for `CCC(Oc1ccc2ccccc2c1Br)C(=O)NNC(=O)c1cc2cc(Br)ccc2oc1=O` (stereo not drawn) [AK-968/37077046], the figure is 3.24%. Consider `Cc1ccc(-c2csc(N3N=C(c4ccc5c(c4)CCCC5)CC3c3ccccc3)n2)cc1` (stereo not drawn) [AL-182/40744490], for which the “Averaged Enzymatic Inhibition @ 2ug/ml (%)” value is -4.165%. On the same count and under the same terms, to `Nc1nc(Nc2cccc(Cl)c2)sc1C(=O)C12CC3CC(CC(C3)C1)C2` [AM-807/12426163] belongs 5.915%; to `CN1CCc2nc3sc(C(=O)c4ccc(-c5ccccc5)cc4)c(N)c3c(-c3cccs3)c2C1` [AM-807/14959628], -12.705%; to `CCOc1cc(/C=C2/SC(=O)N(Cc3c(F)cccc3Cl)C2=O)ccc1O` [AM-879/41780072], 12.385%. Still for that read-out and setting: as for `Cc1cc(C)c2oc(-c3ccc(C)c(NC(=O)C(c4ccccc4)c4ccccc4)c3)nc2c1` [AN-465/13859038], the figure is 40.815%. On the same count and under the same terms, as for `CCn1cc(/C=C2\C(=O)NC(=S)N(c3cccc4ccccc34)C2=O)c2ccccc21` [AN-465/14954307], the figure is 46.45%; as for `Cc1cc(C)c2oc(-c3cccc(NC(=O)COc4cc(Cl)c(Cl)cc4Cl)c3C)nc2c1` [AN-465/40934866], 2.22%. For `N#Cc1c(N)nc2sc(C(=O)Nc3ccccc3)c(N)c2c1-c1cccs1` [AN-512/12594125], the “Averaged Enzymatic Inhibition @ 2ug/ml (%)” value worked out at 10.48%. On the same count and under the same terms, to `C/C(=N\Nc1nc(-c2ccc(F)cc2)cs1)c1nonc1C` [AN-648/40740338] belongs 23.375%. The same measure, in the same setting: as for `Cc1ccnc(NC(=O)c2ccc(Cl)c(NC(=O)c3ccc(-c4ccccc4)cc3)c2)c1` [AN-652/43161615], the figure is 17.89%; as for `c1ccc(CSc2nnc3c(n2)OC(c2c4ccccc4cc4ccccc24)Nc2ccccc2-3)cc1` (stereo not drawn) [AN-655/13300050], 23.865%. Take `CCc1ccc2[nH]c3nc(N/N=C/c4ccc(-c5cccc(C(F)(F)F)c5)o4)nnc3c2c1` [AN-655/15262058]: the “Averaged Enzymatic Inhibition @ 2ug/ml (%)” value is on record as 11.82%. On the same count and under the same terms, to `Cc1ccc(-n2cnc3c(sc4nnc(-c5ccccc5)c(-c5ccccc5)c43)c2=O)cc1` [AN-789/13819006] belongs 1.595%. Same read-out and setting: as for `O=C(COc1ccccc1-c1cnn(-c2ccccc2)c1)N/N=C/c1cc2ccccc2nc1Cl` [AN-829/42007480], the figure is 2.755%; as for `N#Cc1c(N)nc2sc(C(=O)Nc3ccc(Cl)cc3)c(N)c2c1-c1cccs1` [AN-848/43256373], -5%.

With `O=C1c2ccc(-c3nc4ccccc4s3)cc2C(=O)N1c1cccc(-c2nc3ccccc3s2)c1` [AN-979/41713847], the “Averaged Enzymatic Inhibition @ 2ug/ml (%)” value was found to be 5.385%. Consider `O=C(Nc1cccc(S(=O)(=O)N2CCN(C(=O)c3ccccc3)CC2)c1)C1CCCCC1` [AO-080/43378230], for which the “Averaged Enzymatic Inhibition @ 2ug/ml (%)” value was -9.72%. Regarding `O=C(Cn1cc(/C=C2\SC(=NC3CCCC3)N(C3CCCC3)C2=O)c2ccccc21)N1CCOCC1` [AO-081/15386972], the “Averaged Enzymatic Inhibition @ 2ug/ml (%)” value is -1.4%. On the same count and under the same terms, to `O=C(Nc1ccc(Cl)cc1)C1CC(=O)N(c2ccc(Oc3ccccc3)cc2)C1` (stereo not drawn) [AO-081/15572353] belongs -3.26%. The same measure, in the same setting: to `COc1cccc(-c2cc3c(c(N)c2C#N)c(=O)oc2ccccc23)c1` [AO-476/43362608] belongs 9.055%; to `O=C(c1cccc(S(=O)(=O)NC2CCCCCC2)c1)c1cccc(S(=O)(=O)NC2CCCCCC2)c1` [AP-866/40876225], 9.84%. With `N#CC1=C(N)Oc2n[nH]c(-c3ccccc3)c2C1c1cccc(OCc2cccc3ccccc23)c1` (stereo not drawn) [AP-964/41446891], the “Averaged Enzymatic Inhibition @ 2ug/ml (%)” value is recorded as 13.75%.

In the case of `c1ccc(-c2cc(-c3c(-c4ccccc4)cn4c3sc3ccccc34)c(-c3ccccc3)nn2)cc1` [AQ-344/43100304], the “Averaged Enzymatic Inhibition @ 2ug/ml (%)” value is on record as -14.115%.

Turning to `COc1ccc(Cl)cc1C(=O)NCCNc1ccc(-n2nc(C)cc2C)nn1` [AQ-432/43400100], the “Averaged Enzymatic Inhibition @ 2ug/ml (%)” value is listed as -6.36%. `CC(NS(=O)(=O)c1cccc(Cl)c1)C(=O)Nc1cccc(-c2nc3ccccc3s2)c1` (stereo not drawn) [AQ-750/42209760]: the “Averaged Enzymatic Inhibition @ 2ug/ml (%)” value is 13.425%. On the same count and under the same terms, to `O=c1oc2ccccc2cc1-c1nnc(NC2CCCCC2)s1` [AQ-968/42007731] belongs -5.865%; to `Cc1cccn2c(=O)c3cc(C(=O)NC(C)c4ccccc4)c(=N)n(CCc4ccccc4)c3nc12` (stereo not drawn) [AS-871/41399397], -8.995%; to `OC(CON=C1c2ccccc2-c2ccccc21)CN1CCN(c2ccc(Cl)cc2)CC1` (stereo not drawn) [AS-871/42941985], -10.47%.

Staying with this assay, now noted: compound at 2ug/ml, read-out: Averaged Enzymatic Inhibition @ 2ug/ml (%).
`O=C(c1cc(C(=O)N2CCN(c3ccccc3)CC2)cc(C(=O)N2CCN(c3ccccc3)CC2)c1)N1CCN(c2ccccc2)CC1` [Compound A1]: the inhibition at 2 µg/mL stood at 80.6%. For the compound `O=C(CN1C(=O)C(=NNC(=O)c2ccc(NC(=O)c3ccccc3)cc2)c2ccccc21)Nc1ccccc1` [Compound A2], the inhibition at 2 µg/mL came to 50.4%. `Cc1ccc(C)c(N2CCN(C3CC(=O)N(c4ccc(N5C(=O)CC(N6CCN(c7cc(C)ccc7C)CC6)C5=O)cc4)C3=O)CC2)c1` (stereo not drawn) [Compound A3]: the inhibition at 2 µg/mL came to 65.8%.

With `Cc1ccc(N2C(=O)C(=Cc3ccc(C)s3)C(=O)N(c3ccc(C)cc3C)C2=S)c(C)c1` [Compound M3], the inhibition at 2 µg/mL was found to be 91.5%.

With `COc1cc(/C=C2/C(=N)N3N=C(c4ccccc4Cl)SC3=NC2=O)ccc1O` [Compound M4], the inhibition at 2 µg/mL stood at 70.5%.
